In patent publication US20240158446A1, “CYCLIC COMPOUND HAVING SELECTIVE INHIBITORY ACTION ON KRAS OVER HRAS AND NRAS” (CHUGAI SEIYAKU KABUSHIKI KAISHA, priority 2021, published 2024):
Like-named read-outs stand apart in the source and are kept apart here. *1 amine or outer side, *2 acyl side, *3 side chain or, on linkers, in order; H or OH if unused. Where a SMILES comes first, the peptide text is derived from it. Bridges are numbered along the chain shown (N, C = ends). [ ]: non-standard residue; d: D form. The star is where a group is joined. hPhe(3,5-F2-4-CF3) = N[C@@H](CCc1cc(F)c(C(F)(F)F)c(F)c1)C(=O)O; hPhe(3-Cl-4-CF3) = N[C@@H](CCc1ccc(C(F)(F)F)c(Cl)c1)C(=O)O; NPrPhe(4-CF3) = CCCN[C@@H](Cc1ccc(C(F)(F)F)cc1)C(=O)O; NEtPhe(4-CF3) = CCN[C@@H](Cc1ccc(C(F)(F)F)cc1)C(=O)O; X10 = C=CCN([C@@H](Cc1ccc(C)cc1)C(=O)[*:2])[*:1]; NMeGly(cPent) = CN[C@H](C(=O)O)C1CCCC1; NMeAllylGly = C=CC[C@H](NC)C(=O)O; NMeD = CN[C@@H](CC(=O)O)C(=O)O; Ac4c(3-oxa) = NC1(C(=O)O)COC1; NMeL = CN[C@@H](CC(C)C)C(=O)O; Ac6c = NC1(C(=O)O)CCCCC1; Morpholide = C1CN(*)CCO1; NMeA = CN[C@@H](C)C(=O)O; Ac5c = NC1(C(=O)O)CCCC1; Aze = O=C(O)[C@@H]1CCN1; Sar = CNCC(=O)O

What was measured:
[1] = molecular target: GDP-bound KRAS wild-type protein (Homo sapiens, UniProt P01116); assay: Binding to KRAS by surface plasmon resonance (SPR), Single Cycle Kinetics; details: GDP-bound KRAS wild-type protein, read-out: KRAS KD
Chain of GDP-bound KRAS wild-type protein (P01116 whole entry): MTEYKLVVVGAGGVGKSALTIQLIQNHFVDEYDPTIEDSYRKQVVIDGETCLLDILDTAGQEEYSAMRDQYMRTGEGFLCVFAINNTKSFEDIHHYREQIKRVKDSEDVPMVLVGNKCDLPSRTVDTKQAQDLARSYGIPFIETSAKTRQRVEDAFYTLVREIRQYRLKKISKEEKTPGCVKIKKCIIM

[2] = molecular target: GDP-bound NRAS wild-type protein (Homo sapiens, UniProt P01111); assay: Binding to NRAS by surface plasmon resonance (SPR), Single Cycle Kinetics; details: SPR, GDP-bound NRAS wild-type protein vs GDP-bound KRAS wild-type protein
Chain of GDP-bound NRAS wild-type protein (P01111 whole entry): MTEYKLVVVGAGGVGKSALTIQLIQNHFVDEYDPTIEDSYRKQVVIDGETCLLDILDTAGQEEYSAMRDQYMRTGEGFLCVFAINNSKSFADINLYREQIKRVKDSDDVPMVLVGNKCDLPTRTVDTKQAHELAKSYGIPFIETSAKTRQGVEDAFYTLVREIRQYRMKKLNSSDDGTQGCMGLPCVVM

[3] = molecular target: GDP-bound HRAS wild-type protein (Homo sapiens, UniProt P01112); assay: Binding to HRAS by surface plasmon resonance (SPR), Single Cycle Kinetics; details: SPR, GDP-bound HRAS wild-type protein vs GDP-bound KRAS wild-type protein
Chain of GDP-bound HRAS wild-type protein (P01112 whole entry): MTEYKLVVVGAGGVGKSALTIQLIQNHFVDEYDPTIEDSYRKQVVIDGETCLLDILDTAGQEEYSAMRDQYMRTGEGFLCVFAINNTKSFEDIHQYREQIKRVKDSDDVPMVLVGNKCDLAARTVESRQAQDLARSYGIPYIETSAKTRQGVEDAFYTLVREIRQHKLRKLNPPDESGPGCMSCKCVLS

[4] = SPR Single Cycle Kinetics, 1:1 binding model

Kd ([1]; SPR, Single Cycle Kinetics) [nM] | Kd [1, 4] [nM] | Structure (SMILES) | NRAS/KRAS (ratio of KD value for NRAS to KD value for KRAS) [2] | HRAS/KRAS (ratio of KD value for HRAS to KD value for KRAS) [3] | NRAS/KRAS (ratio of KD value with respect to NRAS to KD value with respect to KRAS) [2] | HRAS/KRAS (ratio of KD value with respect to HRAS to KD value with respect to KRAS) [3]
0.042 | – | CCO[C@@H]1C[C@H]2C(=O)N(C)C3(CC(C)(C)C3)C(=O)N(C)[C@@H](C3CCCC3)C(=O)N(C)[C@H](C(=O)N(C)C)CC(=O)N(C)[C@H]3CCC/C=C/c4ccc(cc4)C[C@@H](C(=O)N(C)CC(=O)N[C@@H](CCc4cc(F)c(C(F)(F)F)c(F)c4)C(=O)N2C1)N1CC/C=C\C[C@@H](C1=O)N(C)C(=O)CN(C)C(=O)[C@H]([C@@H](C)CC)NC3=O [PP3060] | B (a compound having 3 or more and less than 10 is denoted as B) | B (a compound having 3 or more and less than 10 is denoted as B) | – | –
– | 1.9 | CC[C@H](C)[C@@H]1NC(=O)[C@H](CC)N(C)C(=O)C[C@@H](C(=O)N(C)C)N(C)C(=O)[C@H](C2CCCC2)N(C)C(=O)C2(CCC2)NC(=O)[C@@H]2CCCCN2C(=O)[C@H](CCc2cc(F)c(C(F)(F)F)c(F)c2)NC(=O)CN(C)C(=O)[C@H](Cc2ccc(C(F)(F)F)cc2)N2CCCCC[C@@H](C2=O)N(C)C(=O)CN(C)C1=O [PP0655] | – | – | B (a compound having 3 or more and less than 10 is denoted as B) | B (a compound having 3 or more and less than 10 is denoted as B)
– | 0.57 | CC[C@H](C)[C@@H]1NC(=O)[C@H](CC(C)C)N(C)C(=O)C[C@@H](C(=O)N2CCOCC2)N(C)C(=O)[C@H](C2CCCC2)N(C)C(=O)C2(CCCCC2)NC(=O)[C@@H]2CCCN2C(=O)[C@H](CCc2ccc(C(F)(F)F)c(Cl)c2)NC(=O)CN(C)C(=O)[C@H](Cc2ccc(C(F)(F)F)cc2)N(CC)C(=O)[C@@H]2CCN2C(=O)[C@H](C)N(C)C1=O [PP0222] ([NMeL]I[NMeA][Aze][NEtPhe(4-CF3)][Sar][hPhe(3-Cl-4-CF3)]P[Ac6c][NMeGly(cPent)][NMeD]-Morpholide; lactam N-11) | C (A compound having a KD ratio of 0.1 or more and less than 3 is denoted as C) | C (A compound having a KD ratio of 0.1 or more and less than 3 is denoted as C) | – | –
– | 0.39 | CCCN1C(=O)CN(C)C(=O)CN(C)C(=O)[C@H]([C@@H](C)CC)NC(=O)[C@H](CC(C)C)N(C)C(=O)C[C@@H](C(=O)N2CCOCC2)N(C)C(=O)[C@H](C2CCCC2)N(C)C(=O)C2(CCCC2)NC(=O)[C@@H]2CCN2C(=O)[C@H](CCc2ccc(C(F)(F)F)c(Cl)c2)NC(=O)CN(C)C(=O)[C@@H]1Cc1ccc(C(F)(F)F)cc1 [PP0260] ([NMeL]I[Sar][Sar][NPrPhe(4-CF3)][Sar][hPhe(3-Cl-4-CF3)][Aze][Ac5c][NMeGly(cPent)][NMeD]-Morpholide; lactam N-11) | B (a compound having 3 or more and less than 10 is denoted as B) | C (A compound having a KD ratio of 0.1 or more and less than 3 is denoted as C) | – | –
– | 230 | C=CC[C@H]1C(=O)N(CC=C)[C@@H](Cc2ccc(C)cc2)C(=O)N(C)CC(=O)N[C@@H](CCc2ccc(C(F)(F)F)c(Cl)c2)C(=O)N2CCC[C@H]2C(=O)NC2(CCCC2)C(=O)N(C)[C@@H](C2CCCC2)C(=O)N(C)[C@H](C(=O)N2CCOCC2)CC(=O)N(C)[C@@H](CC(C)C)C(=O)N[C@@H]([C@@H](C)CC)C(=O)N(C)CC(=O)N1C [PP0139] ([NMeL]I[Sar][NMeAllylGly][X10][Sar][hPhe(3-Cl-4-CF3)]P[Ac5c][NMeGly(cPent)][NMeD]-Morpholide; lactam N-11) | C (A compound having a KD ratio of 0.1 or more and less than 3 is denoted as C) | C (A compound having a KD ratio of 0.1 or more and less than 3 is denoted as C) | – | –
1.5 | – | CCC[C@H]1C(=O)N[C@@H](C2CCCCC2)C(=O)N(C)CC(=O)N(C)[C@H]2C/C=C\CCN(C2=O)[C@@H](Cc2ccc(C(F)(F)F)cc2)C(=O)N(C)CC(=O)N[C@@H](CCc2ccc(C(F)(F)F)c(Cl)c2)C(=O)N2C[C@H](OCC)C[C@H]2C(=O)NC2(CC(C)(C)C2)C(=O)N(C)[C@@H](CC(C)C)C(=O)N(C)[C@H](C(=O)N(C)C)CC(=O)N1C [PP3017] | AA (a compound having 20 or more is denoted as AA) | A (a compound having 10 or more and less than 20 is denoted as A) | – | –
– | 0.31 | CCCN1C(=O)CN(C)C(=O)CN(C)C(=O)[C@H]([C@@H](C)CC)NC(=O)[C@H](CC(C)C)N(C)C(=O)C[C@@H](C(=O)N2CCOCC2)N(C)C(=O)[C@H](C2CCCC2)N(C)C(=O)C2(COC2)NC(=O)[C@@H]2CCCN2C(=O)[C@H](CCc2cc(F)c(C(F)(F)F)c(F)c2)NC(=O)CN(C)C(=O)[C@@H]1Cc1ccc(C(F)(F)F)cc1 [PP0765] ([NMeL]I[Sar][Sar][NPrPhe(4-CF3)][Sar][hPhe(3,5-F2-4-CF3)]P[Ac4c(3-oxa)][NMeGly(cPent)][NMeD]-Morpholide; lactam N-11) | – | – | B (a compound having 3 or more and less than 10 is denoted as B) | C (A compound having a KD ratio of 0.1 or more and less than 3 is denoted as C)
